Data from PubChem BioAssay AID2060508 (Molecular Pharmacology Branch, DTP, NCI, 2025).
One block for each molecule: values may come before it.

System: 454973-116-R2-J3-PDC spheroids, viability, % test/control
Test: Anticancer human tumor 454973-116-R2-J3-PDC patient-derived pancreatic carcinoma cell line growth inhibition [GQUAD]
Conditions: spheroids with HUVEC and MSC; for IC50: curve of first compound; for viability, T/C: stronger effect = lower value
Summary of the method: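 Viability of tumor cells grown as complex spheroids with endothelial and stromal cells, exposed to drug combinations. Top concentration at or near clinical Cmax (else 10 microM), diluted in half-log increments.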

[1] = second compound 0.0316 µM, first compound 0.0316 µM
[2] = second compound 0.0316 µM, first compound 0.1 µM
[3] = second compound 0.0316 µM, first compound 0.316 µM
[4] = second compound 0.0316 µM, first compound 1 µM
[5] = second compound 0.0316 µM, first compound 3.16 µM
[6] = second compound 0.0316 µM, first compound 10 µM
[7] = second compound 0.1 µM, first compound 0.0316 µM
[8] = second compound 0.1 µM, first compound 0.1 µM
[9] = second compound 0.1 µM, first compound 0.316 µM
[10] = second compound 0.1 µM, first compound 1 µM
[11] = second compound 0.1 µM, first compound 3.16 µM
[12] = second compound 0.1 µM, first compound 10 µM
[13] = second compound 0.316 µM, first compound 0.0316 µM
[14] = second compound 0.316 µM, first compound 0.1 µM
[15] = second compound 0.316 µM, first compound 0.316 µM
[16] = second compound 0.316 µM, first compound 1 µM
[17] = second compound 0.316 µM, first compound 3.16 µM
[18] = second compound 0.316 µM, first compound 10 µM
[19] = second compound 1 µM, first compound 0.0316 µM
[20] = second compound 1 µM, first compound 0.1 µM
[21] = second compound 1 µM, first compound 0.316 µM
[22] = second compound 1 µM, first compound 1 µM
[23] = second compound 1 µM, first compound 3.16 µM
[24] = second compound 1 µM, first compound 10 µM
[25] = second compound 3.16 µM, first compound 0.0316 µM
[26] = second compound 3.16 µM, first compound 0.1 µM
[27] = second compound 3.16 µM, first compound 0.316 µM
[28] = second compound 3.16 µM, first compound 1 µM
[29] = second compound 3.16 µM, first compound 3.16 µM
[30] = second compound 3.16 µM, first compound 10 µM
[31] = second compound 10 µM, first compound 0.0316 µM
[32] = second compound 10 µM, first compound 0.1 µM
[33] = second compound 10 µM, first compound 0.316 µM
[34] = second compound 10 µM, first compound 1 µM
[35] = second compound 10 µM, first compound 3.16 µM
[36] = second compound 10 µM, first compound 10 µM
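Also: spheroids exposed to compounds for seven days.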
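For viability, T/C in this document: 100% = DMSO vehicle control viability.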

IC50 (second compound 0.0316 µM): 190 nM | IC50 (second compound 0.1 µM): 121 nM | IC50 (second compound 0.316 µM): 110 nM | IC50 (second compound 1 µM): 263 nM | IC50 (second compound 3.16 µM): 186 nM | IC50 (second compound 10 µM): < 31.6 nM
Structure (SMILES): C=CCn1c(=O)c2cnc(Nc3ccc(N4CCN(C)CC4)cc3)nc2n1-c1cccc(C(C)(C)O)n1 + Cc1cnc(CNC(=O)c2c(=O)c3ccc(N4CCCN(C)CC4)nc3n3c2sc2ccccc23)cn1
viability, T/C [1]: 98% | viability, T/C [2]: 78.8% | viability, T/C [3]: 27% | viability, T/C [4]: 11.7% | viability, T/C [5]: 6.73% | viability, T/C [6]: 10.2% | viability, T/C [7]: 76.5% | viability, T/C [8]: 53.6% | viability, T/C [9]: 29.8% | viability, T/C [10]: 12% | viability, T/C [11]: 8.47% | viability, T/C [12]: 8.54% | viability, T/C [13]: 57.6% | viability, T/C [14]: 49.7% | viability, T/C [15]: 37.2% | viability, T/C [16]: 18.1% | viability, T/C [17]: 9.06% | viability, T/C [18]: 9.69% | viability, T/C [19]: 60.9% | viability, T/C [20]: 59.2% | viability, T/C [21]: 48.2% | viability, T/C [22]: 22.4% | viability, T/C [23]: 13.7% | viability, T/C [24]: 13.6% | viability, T/C [25]: 58.3% | viability, T/C [26]: 63.1% | viability, T/C [27]: 40.8% | viability, T/C [28]: 23.9% | viability, T/C [29]: 18.2% | viability, T/C [30]: 21.9% | viability, T/C [31]: 0.34% | viability, T/C [32]: 20.9% | viability, T/C [33]: 23.4% | viability, T/C [34]: 0.26% | viability, T/C [35]: 0.3% | viability, T/C [36]: 0.38%

IC50 (second compound 0.0316 µM): 1730 nM | IC50 (second compound 0.1 µM): 1550 nM | IC50 (second compound 0.316 µM): 1630 nM | IC50 (second compound 1 µM): 1740 nM | IC50 (second compound 3.16 µM): 1360 nM | IC50 (second compound 10 µM): < 31.6 nM
Structure (SMILES): CC(C)(O)C1CCC(Nc2ccc3ncc(-c4cccc(C(F)(F)F)c4)n3n2)CC1 (stereo not drawn) + Cc1cnc(CNC(=O)c2c(=O)c3ccc(N4CCCN(C)CC4)nc3n3c2sc2ccccc23)cn1
viability, T/C [1]: 108% | viability, T/C [2]: 89.3% | viability, T/C [3]: 96.5% | viability, T/C [4]: 75% | viability, T/C [5]: 21.5% | viability, T/C [6]: 23.8% | viability, T/C [7]: 83.3% | viability, T/C [8]: 83.8% | viability, T/C [9]: 85.4% | viability, T/C [10]: 65.4% | viability, T/C [11]: 22% | viability, T/C [12]: 27.6% | viability, T/C [13]: 82.8% | viability, T/C [14]: 69.2% | viability, T/C [15]: 76.2% | viability, T/C [16]: 64.3% | viability, T/C [17]: 28.9% | viability, T/C [18]: 32.1% | viability, T/C [19]: 76.4% | viability, T/C [20]: 65.6% | viability, T/C [21]: 65.1% | viability, T/C [22]: 66.5% | viability, T/C [23]: 31.9% | viability, T/C [24]: 32.5% | viability, T/C [25]: 66.9% | viability, T/C [26]: 65.2% | viability, T/C [27]: 63.9% | viability, T/C [28]: 59.8% | viability, T/C [29]: 21.3% | viability, T/C [30]: 25.9% | viability, T/C [31]: 0.3% | viability, T/C [32]: 17.6% | viability, T/C [33]: 49% | viability, T/C [34]: 0.58% | viability, T/C [35]: 0.43% | viability, T/C [36]: 0.23%

IC50 (second compound 0.0316 µM): > 10000 nM | IC50 (second compound 0.1 µM): > 10000 nM | IC50 (second compound 0.316 µM): > 10000 nM | IC50 (second compound 1 µM): > 10000 nM | IC50 (second compound 3.16 µM): > 10000 nM | IC50 (second compound 10 µM): < 31.6 nM
Structure (SMILES): COc1ncnc(C2CC2)c1-c1ncc2cnn(Cc3ccc(-c4nc(C(F)(F)F)cn4C(C)C)cc3)c2n1 + Cc1cnc(CNC(=O)c2c(=O)c3ccc(N4CCCN(C)CC4)nc3n3c2sc2ccccc23)cn1
viability, T/C [1]: 96% | viability, T/C [2]: 94% | viability, T/C [3]: 87.8% | viability, T/C [4]: 104% | viability, T/C [5]: 88.9% | viability, T/C [6]: 86.9% | viability, T/C [7]: 82.1% | viability, T/C [8]: 69.4% | viability, T/C [9]: 74.7% | viability, T/C [10]: 71.4% | viability, T/C [11]: 69% | viability, T/C [12]: 63.4% | viability, T/C [13]: 65.4% | viability, T/C [14]: 61.9% | viability, T/C [15]: 59.5% | viability, T/C [16]: 69.2% | viability, T/C [17]: 60% | viability, T/C [18]: 62% | viability, T/C [19]: 55.3% | viability, T/C [20]: 69.4% | viability, T/C [21]: 57.4% | viability, T/C [22]: 63.2% | viability, T/C [23]: 61.4% | viability, T/C [24]: 58.4% | viability, T/C [25]: 61.7% | viability, T/C [26]: 58.8% | viability, T/C [27]: 61.7% | viability, T/C [28]: 57.8% | viability, T/C [29]: 67.8% | viability, T/C [30]: 54% | viability, T/C [31]: 0.22% | viability, T/C [32]: 19.6% | viability, T/C [33]: 50.4% | viability, T/C [34]: 40.6% | viability, T/C [35]: 0.38% | viability, T/C [36]: 0.3%

IC50 (second compound 0.0316 µM): 198 nM | IC50 (second compound 0.1 µM): 163 nM | IC50 (second compound 0.316 µM): 144 nM | IC50 (second compound 1 µM): 140 nM | IC50 (second compound 3.16 µM): 130 nM | IC50 (second compound 10 µM): < 31.6 nM
Structure (SMILES): O=C(NO)c1cnc(N2CCN(S(=O)(=O)c3ccc4ccccc4c3)CC2)nc1 + Cc1cnc(CNC(=O)c2c(=O)c3ccc(N4CCCN(C)CC4)nc3n3c2sc2ccccc23)cn1
viability, T/C [1]: 105% | viability, T/C [2]: 81.9% | viability, T/C [3]: 28.5% | viability, T/C [4]: 1.33% | viability, T/C [5]: 0.09% | viability, T/C [6]: 0.11% | viability, T/C [7]: 87.1% | viability, T/C [8]: 68.6% | viability, T/C [9]: 24.8% | viability, T/C [10]: 1.02% | viability, T/C [11]: 0.59% | viability, T/C [12]: 0.1% | viability, T/C [13]: 67.4% | viability, T/C [14]: 61.9% | viability, T/C [15]: 23.6% | viability, T/C [16]: 0.34% | viability, T/C [17]: 0.11% | viability, T/C [18]: 0.12% | viability, T/C [19]: 59.5% | viability, T/C [20]: 64.1% | viability, T/C [21]: 21.8% | viability, T/C [22]: 0.41% | viability, T/C [23]: 0.09% | viability, T/C [24]: 0.13% | viability, T/C [25]: 67.9% | viability, T/C [26]: 60.9% | viability, T/C [27]: 13.3% | viability, T/C [28]: 0.48% | viability, T/C [29]: 0.95% | viability, T/C [30]: 0.53% | viability, T/C [31]: 0.19% | viability, T/C [32]: 21.1% | viability, T/C [33]: 0.26% | viability, T/C [34]: 0.2% | viability, T/C [35]: 0.19% | viability, T/C [36]: 0.19%
